In patent publication US6458978B1, “Fluorous phosphines and process for their preparation” (Atofina Vlissingen B.V., priority 1998, dated 2002):
Marks after values point to notes of the source that are not given here.

What was measured:
[1] = c-C6F11CF3/toluene at 27° C.; cited from earlier work
[2] = Leaching of rhodium and phosphorus into the organic product phase and partitioning of rhodium species (ICP-AAS); settings: fluorous biphasic product mixture from hydrogenation of 1-octene
Description: Rhodium leaching into the organic phase (as determined by ICP-AAS) was low. On average 0.12% of Rh per cycle was lost corresponding to a rhodium concentration of 3 ppm (by weight) in the product phase. Over 9 cycles only 1% of rhodium was lost despite of the phase separation method used. Leaching was higher for less fluorous pre-catalyst H{1,6}: 0.3% (6 ppm) of rhodium was present in the organic phase after phase separation.
The amount of leached rhodium allows to calculate the average partition coefficients (P) of the rhodium species present during phase separation (Table 6). […] Chem. Soc. 1999, 121, 2696-2704.). […] Chem. Int. Ed. Engl. 1997, 36, 1610-1612).
The retention of free uncoordinated fluorous phosphine can be used for recycling the intact catalyst system.
(§1) Only catalysts prepared through method 1 were used. Catalytic reactions were carried out under single phase fluorous conditions in c-CF3C6F11 (2 mL) at 80° C. After >90% conversion (monitored by the H2 uptake) the homogeneous reaction mixture was cooled to 0° C. and the upper organic layer was siphoned of. In between cycles the fluorous layer was kept under H2 atmosphere. By warming up to 80° C. and addition of a fresh portion of 1-octene (12.74 mmol) a new cycle was started. The organic phases resulting from the first cycle were analyzed by GC and ICP-AAS.

[3] = Rhodium catalyzed hydrogenation of 1-octene under single phase fluorous conditions with catalyst recycling; settings: for TOF50% / TON (cumulative) / conv.: p(H2) = 1 bar
Method: (Table 5). In this respect compounds H{1,6} and H{1,8} are true fluorous equivalents of the classical Wilkinson's hydrogenation catalyst (PPh3)3RhCl. The hydrogenation products were readily isolated from the catalyst layer by cooling of the reaction mixture to 0° C. followed by phase separation of the resulting biphasic system. In this way hydrogenation of 1-octene afforded n-octane in >95% yield (GC, GC-MS). Less than 4.3% internal olefins resulting from isomerization were present. In case of H{1,8} it was possible to recycle the fluorous catalyst layer multiple times allowing high turnover numbers and high conversions per cycle (Table 5 and FIG. 5).
20. Rhodium Catalyzed Hydrogenation Reactions
The catalytic experiments were carried out in a 30 mL Schienk flask, under dihydrogen atmosphere (1 bar). The catalyst was either dissolved in a hydrogen saturated toluene or perfluoro solvent and the mixture was stirred with a magnetic stirring bar (900 rpm). The olefinic substrate was added after initial dihydrogen uptake had ceased. The dihydrogen uptake was monitored using two mineral oil filled gas burettes. During the hydrogenation reactions one burette was opened to the reaction vessel while the other was recharged with dihydrogen.
as §1

[4] = Hydrogenation of 1-octene under single phase conditions in α,α,α-trifluorotoluene; settings: [Rh] 4.0 mM, [1-octene] 1.46 M; T = 80° C., p(H2) = 1 bar, α,α,α-trifluorotoluene
Method: To be able to directly compare the activities of fluorous derivatives H{1,6} and H{1,8} with non-fluorous [P(C6H4-4-SiMe3)3]3RhCl (H{0}) and the conventional Wilkinson catalyst (PPh3)3RhCl, homogeneous hydrogenation of 1-octene were carried out under single phase conditions in the hybrid solvent α,α,α-trifluorotoluene at atmospheric H2 pressures. Highest rates of hydrogen uptake (14.2 mol.L^−1.h^−1) were measured for 1c at relatively high rhodium and olefine concentrations (entry 2, Table 7). Under these conditions a zero-order dependence in [1-octene] was found up to ca 80% conversion resulting in a linear conversion versus time plot. In all other experiments ([Rh]=4.0-8.0 mM, [1-octene]0=1.46 M) rates of hydrogen uptake were lower (<11 mol.L^−1.h^−1) and conversion versus time plots corresponded to a rate law -d[1-octene]/dt=kobs.[1-octene] for >98% conversion allowing to evaluate catalyst activity in terms of the observed first order rate constant kobs. Since for these experiments the rates of dihydrogen uptake were well below the maximum value obtained in entry 2, diffusion limitation of H2 can be excluded. In addition to kobs, turn over frequencies (TOF in mol.mol^−1.h^−1) were derived from the tangent of a 4^thorder polynomal fit to conversion versus time plots at 25% conversion and serve as a measure of catalyst activity independent of any assumed kinetic relationship with substrate.
Catalytic reactions were carried out under single phase conditions in CF3C6H5 at 80° C. under 1 bar of hydrogen pressure. After >90% conversion (monitored by the H2 uptake) volatiles were distilled off and analyzed by GC. Activities (TOF) were determined for 25% conversion.

[5] = Solubility of dppe and dppe derivatives G{m,x} in perfluorinated and non-fluorinated solvents; type: physicochemical; settings: for solubility at room temperature, FC-72: FC-72: mixture of perfluorinated hexanes
[6] = cycle 1, c-CF3C6F11, 80° C., [1-octene]/[Rh] = 559, [Rh]0 = 0.0060M
[7] = cycle 1, c-CF3C6F11, 80° C., [1-octene]/[Rh] = 365
[8] = cycle 2, c-CF3C6F11, 80° C., [1-octene]/[Rh] = 365
[9] = cycle 3, c-CF3C6F11, 80° C., [1-octene]/[Rh] = 365
[10] = cycle 4, c-CF3C6F11, 80° C., [1-octene]/[Rh] = 365
[11] = cycle 5, c-CF3C6F11, 80° C., [1-octene]/[Rh] = 365
[12] = cycle 6, c-CF3C6F11, 80° C., [1-octene]/[Rh] = 365
[13] = cycle 7, c-CF3C6F11, 80° C., [1-octene]/[Rh] = 365
[14] = cycle 8, c-CF3C6F11, 80° C., [1-octene]/[Rh] = 365
[15] = cycle 9, fresh c-CF3C6F11 added as compensation for losses of fluorous solvent, 80° C.

FC(F)(F)C(F)(F)C(F)(F)C(F)(F)C(F)(F)C(F)(F)CCP(CCC(F)(F)C(F)(F)C(F)(F)C(F)(F)C(F)(F)C(F)(F)F)CCC(F)(F)C(F)(F)C(F)(F)C(F)(F)C(F)(F)C(F)(F)F [P [(CH2)2(CF2)nCF3)3]3 (n=7)]
Partition coefficient P [1]: 332

C[Si](C)(CCC(F)(F)C(F)(F)C(F)(F)C(F)(F)C(F)(F)C(F)(F)F)c1ccc([PH](c2ccc([Si](C)(C)CCC(F)(F)C(F)(F)C(F)(F)C(F)(F)C(F)(F)C(F)(F)F)cc2)(c2ccc([Si](C)(C)CCC(F)(F)C(F)(F)C(F)(F)C(F)(F)C(F)(F)C(F)(F)F)cc2)[Rh]([Cl])([PH](c2ccc([Si](C)(C)CCC(F)(F)C(F)(F)C(F)(F)C(F)(F)C(F)(F)C(F)(F)F)cc2)(c2ccc([Si](C)(C)CCC(F)(F)C(F)(F)C(F)(F)C(F)(F)C(F)(F)C(F)(F)F)cc2)c2ccc([Si](C)(C)CCC(F)(F)C(F)(F)C(F)(F)C(F)(F)C(F)(F)C(F)(F)F)cc2)[PH](c2ccc([Si](C)(C)CCC(F)(F)C(F)(F)C(F)(F)C(F)(F)C(F)(F)C(F)(F)F)cc2)(c2ccc([Si](C)(C)CCC(F)(F)C(F)(F)C(F)(F)C(F)(F)C(F)(F)C(F)(F)F)cc2)c2ccc([Si](C)(C)CCC(F)(F)C(F)(F)C(F)(F)C(F)(F)C(F)(F)C(F)(F)F)cc2)cc1 [H{1,6}, (D{1,6})3RhCl]
Average partitioning coefficient P of rhodium species ([2]; T = 0° C.): 293^b | Average partitioning coefficient P of rhodium species ([2]; T = 25° C.): 76^b | TOF50% [3, 6]: 298 h⁻¹ | TON (cumulative) [3, 6]: 531 | conv. ([3]; cycle 1, c-CF3C6F11, 80° C., containing 10 mol % of D{1,6}, [1-octene]/[Rh] = 559, [Rh]0 = 0.0060M): 95% | TOF(25%), turn over frequency at 25% conversion [4]: 1110 h⁻¹ | TON (mole of olefin/mole of Rh) [4]: 363 | conversion [4]: 99% | kobs (first order rate constant) [4]: 4.2(1) h^−1

FC(F)(F)C(F)(F)C(F)(F)C(F)(F)C(F)(F)C(F)(F)CC[Si](CCC(F)(F)C(F)(F)C(F)(F)C(F)(F)C(F)(F)C(F)(F)F)(CCC(F)(F)C(F)(F)C(F)(F)C(F)(F)C(F)(F)C(F)(F)F)c1ccc(P(CCP(c2ccc([Si](CCC(F)(F)C(F)(F)C(F)(F)C(F)(F)C(F)(F)C(F)(F)F)(CCC(F)(F)C(F)(F)C(F)(F)C(F)(F)C(F)(F)C(F)(F)F)CCC(F)(F)C(F)(F)C(F)(F)C(F)(F)C(F)(F)C(F)(F)F)cc2)c2ccc([Si](CCC(F)(F)C(F)(F)C(F)(F)C(F)(F)C(F)(F)C(F)(F)F)(CCC(F)(F)C(F)(F)C(F)(F)C(F)(F)C(F)(F)C(F)(F)F)CCC(F)(F)C(F)(F)C(F)(F)C(F)(F)C(F)(F)C(F)(F)F)cc2)c2ccc([Si](CCC(F)(F)C(F)(F)C(F)(F)C(F)(F)C(F)(F)C(F)(F)F)(CCC(F)(F)C(F)(F)C(F)(F)C(F)(F)C(F)(F)C(F)(F)F)CCC(F)(F)C(F)(F)C(F)(F)C(F)(F)C(F)(F)C(F)(F)F)cc2)cc1 [G{3,6}]
solubility at room temperature, THF [5]: − (−: <0.01 g/ml) | solubility at room temperature, toluene [5]: − (−: <0.01 g/ml) | solubility at room temperature, FC-72 [5]: + (+: >0.1 g/ml)

FC(F)(F)C(F)(F)C(F)(F)C(F)(F)C(F)(F)C(F)(F)CCP(CCC(F)(F)C(F)(F)C(F)(F)C(F)(F)C(F)(F)C(F)(F)F)CCC(F)(F)C(F)(F)C(F)(F)C(F)(F)C(F)(F)C(F)(F)F [P [(CH2)2(CF2)nCF3)3]3 (n=5)]
Partition coefficient P [1]: 82

C[Si](C)(CCC(F)(F)C(F)(F)C(F)(F)C(F)(F)C(F)(F)C(F)(F)C(F)(F)C(F)(F)F)c1ccc(P(CCP(c2ccc([Si](C)(C)CCC(F)(F)C(F)(F)C(F)(F)C(F)(F)C(F)(F)C(F)(F)C(F)(F)C(F)(F)F)cc2)c2ccc([Si](C)(C)CCC(F)(F)C(F)(F)C(F)(F)C(F)(F)C(F)(F)C(F)(F)C(F)(F)C(F)(F)F)cc2)c2ccc([Si](C)(C)CCC(F)(F)C(F)(F)C(F)(F)C(F)(F)C(F)(F)C(F)(F)C(F)(F)C(F)(F)F)cc2)cc1 [G{1,8}]
solubility at room temperature, THF [5]: − (−: <0.01 g/ml) | solubility at room temperature, toluene [5]: − (−: <0.01 g/ml) | solubility at room temperature, FC-72 [5]: − (−: <0.01 g/ml)

C[Si](C)(CCC(F)(F)C(F)(F)C(F)(F)C(F)(F)C(F)(F)C(F)(F)C(F)(F)C(F)(F)F)c1ccc(P(c2ccc([Si](C)(C)CCC(F)(F)C(F)(F)C(F)(F)C(F)(F)C(F)(F)C(F)(F)C(F)(F)C(F)(F)F)cc2)c2ccc([Si](C)(C)CCC(F)(F)C(F)(F)C(F)(F)C(F)(F)C(F)(F)C(F)(F)C(F)(F)C(F)(F)F)cc2)cc1.C[Si](C)(CCC(F)(F)C(F)(F)C(F)(F)C(F)(F)C(F)(F)C(F)(F)C(F)(F)C(F)(F)F)c1ccc(P(c2ccc([Si](C)(C)CCC(F)(F)C(F)(F)C(F)(F)C(F)(F)C(F)(F)C(F)(F)C(F)(F)C(F)(F)F)cc2)c2ccc([Si](C)(C)CCC(F)(F)C(F)(F)C(F)(F)C(F)(F)C(F)(F)C(F)(F)C(F)(F)C(F)(F)F)cc2)cc1.C[Si](C)(CCC(F)(F)C(F)(F)C(F)(F)C(F)(F)C(F)(F)C(F)(F)C(F)(F)C(F)(F)F)c1ccc(P(c2ccc([Si](C)(C)CCC(F)(F)C(F)(F)C(F)(F)C(F)(F)C(F)(F)C(F)(F)C(F)(F)C(F)(F)F)cc2)c2ccc([Si](C)(C)CCC(F)(F)C(F)(F)C(F)(F)C(F)(F)C(F)(F)C(F)(F)C(F)(F)C(F)(F)F)cc2)cc1.[Cl][Rh] [H{1,8}, (D{1,8})3RhCl]
Average partitioning coefficient P of rhodium species ([2]; T = 0° C.): 1052^c | Drop of catalyst activity ([3]; 9th cycle, amount of c-C6F11CF3 restored to its initial volume): 19% | TOF50% [3, 7]: 177 h⁻¹ | TON (cumulative) [3, 7]: 337 | conv. ([3]; cycle 1, c-CF3C6F11, 80° C., [1-octene]/[Rh] = 365, [Rh] = 0.0087M in the initial cycle): 92% | TOF50% [3, 8]: 212 h⁻¹ | TON (cumulative) [3, 8]: 688 | conv. [3, 8]: 96% | TOF50% [3, 9]: 261 h⁻¹ | TON (cumulative) [3, 9]: 1048 | conv. [3, 9]: 99% | TOF50% [3, 10]: 277 h⁻¹ | TON (cumulative) [3, 10]: 1383 | conv. [3, 10]: 92% | TOF50% [3, 11]: 304 h⁻¹ | TON (cumulative) [3, 11]: 1747 | conv. [3, 11]: 99.8% | TOF50% [3, 12]: 397 h⁻¹ | TON (cumulative) [3, 12]: 2100 | conv. [3, 12]: 96.8% | TOF50% [3, 13]: 507 h⁻¹ | TON (cumulative) [3, 13]: 2444 | conv. [3, 13]: 94% | TOF50% [3, 14]: 617 h⁻¹ | TON (cumulative) [3, 14]: 2808 | conv. [3, 14]: 99.7% | TOF50% [3, 15]: 142 h⁻¹ | TON (cumulative) [3, 15]: 3117 | conv. [3, 15]: 85% | TOF(25%), turn over frequency at 25% conversion [4]: 870 h⁻¹ | TON (mole of olefin/mole of Rh) [4]: 355 | conversion [4]: 99% | kobs (first order rate constant) [4]: 3.2(1) h^−1
